Where two headings read alike, the source gives them in different places.
Target: T1, TrkA kinase (Homo sapiens, UniProt P04629)
T1 construct: purchased Upstate, USA
Assay: In vitro TrkA inhibitory activity using TR-FRET assay
Type: biochemical
Conditions: 5 ng TrkA, 500 μM ATP, values given as bins
Method: Compounds were screened in the TR-FRET assay with TrkA kinase. 5 ng of TrkA [Upstate, USA] kinase was used for assay. The compound was incubated with the kinase for 30 minutes at 20-35° C. After the incubation, substrate mix [40 nM Ultra light poly GT (Perkin Elmer, USA) and 500 μM ATP] was added. The above reaction was stopped by the addition of 40 mM EDTA after 30 minutes. The Eu-labelled antiphospho-tyrosine antibody [Perkin Elmer, USA] was added at 0.5 nM and the fluorescence emission at 615 nm/665 nm [excitation at 340 nm] was measured. The compounds were initially screened at 100 nM, 1 μM and 10 μM concentrations. The potent compounds with >25% inhibition at 1 μM of TrkA were taken for the full dose response studies. The final DMSO concentration in the assay was […]. For IC50 determination, ⅓^rd serial dilution was made from the 20 mM DMSO stock solution. 2 μl of these were transferred to the test wells containing 20 μl reaction mixture [Total reaction volume 22 μl]. The fluorescence was measured in Perkin Elmer Wallac 1420 Multilabel Counter Victor 3. The IC50 was determined by fitting the dose response data to a sigmoidal curve fitting equation using GraphPad Prism software version 5.

[1] = read-out: TrkA inhibition in-vitro IC50
[2] = read-out: TrkA inhibitory activity in-vitro IC50

T1 sequence (P04629 33-796): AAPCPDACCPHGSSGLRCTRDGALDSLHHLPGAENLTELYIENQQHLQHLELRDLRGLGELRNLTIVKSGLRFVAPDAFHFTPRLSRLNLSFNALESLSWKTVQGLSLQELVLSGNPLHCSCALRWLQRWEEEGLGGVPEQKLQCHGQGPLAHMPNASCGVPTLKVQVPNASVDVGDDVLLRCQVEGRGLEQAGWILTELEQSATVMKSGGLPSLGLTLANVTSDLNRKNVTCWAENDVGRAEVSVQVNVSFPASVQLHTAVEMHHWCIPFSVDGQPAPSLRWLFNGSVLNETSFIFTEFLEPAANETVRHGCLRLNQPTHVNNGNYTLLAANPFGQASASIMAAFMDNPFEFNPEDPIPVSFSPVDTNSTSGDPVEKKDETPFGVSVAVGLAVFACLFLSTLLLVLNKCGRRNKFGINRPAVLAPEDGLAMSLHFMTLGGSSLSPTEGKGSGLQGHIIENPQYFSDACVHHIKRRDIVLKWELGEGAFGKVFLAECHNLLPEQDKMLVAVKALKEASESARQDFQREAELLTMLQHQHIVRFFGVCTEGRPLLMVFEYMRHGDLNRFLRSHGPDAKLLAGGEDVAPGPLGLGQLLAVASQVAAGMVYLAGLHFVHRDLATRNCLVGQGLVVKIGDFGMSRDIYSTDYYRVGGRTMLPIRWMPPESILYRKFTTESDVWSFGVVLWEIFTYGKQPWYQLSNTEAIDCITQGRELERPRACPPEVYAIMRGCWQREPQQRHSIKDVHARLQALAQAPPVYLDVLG

Row | SMILES | IC50 [1] | IC50 [2]
1 | CCN(CCF)S(=O)(=O)NC(=O)c1cnc2ccc(N3C[C@@H](F)C[C@@H]3c3cc(F)ccc3OC3CCOCC3)cn12 [Example 102, N—(N-ethyl-N-(2-fluoroethyl)sulfamoyl)-6-((2R,4S)-4-fluoro-2-(5-fluoro-2-((tetrahydro-2H-pyran-4-yl)oxy)phenyl)pyrrolidin-1-yl)imidazo[1,2-a]pyridine-3-carboxamide] | ≤ 50 nM | –
2 | CN(c1nncs1)S(=O)(=O)NC(=O)c1cnc2ccc(N3CCC[C@@H]3c3cc(F)ccc3OC3CCOCC3)cn12 [Example 86, (R)-6-(2-(5-fluoro-2-((tetrahydro-2H-pyran-4-yl)oxy)phenyl)pyrrolidin-1-yl)-N—(N-methyl-N-(1,3,4-thiadiazol-2-yl)sulfamoyl)imidazo[1,2-a]pyridine-3-carboxamide] | ≤ 50 nM | –
3 | CC(C)(C)S(=O)(=O)NC(=O)c1cnc2ccc(N3C[C@@H](F)C[C@@H]3c3cc(F)ccc3OCCF)cn12 [Example 58, N-(tert-butylsulfonyl)-6-((2R,4S)-4-fluoro-2-(5-fluoro-2-(2-fluoroethoxy)phenyl)pyrrolidin-1-yl)imidazo[1,2-a] pyridine-3-carboxamide] | ≤ 50 nM | –
4 | CN(CCF)S(=O)(=O)NC(=O)c1cnc2ccc(N3C[C@@H](F)C[C@@H]3c3cc(F)ccc3O[C@@H]3CCOC3)cn12 [Example 62, 6-((2R,4S)-4-fluoro-2-(5-fluoro-2-(((R)-tetrahydrofuran-3-yl)oxy)phenyl)pyrrolidin-1-yl)-N-(N-(2-fluoroethyl)-N-methylsulfamoyl)imidazo[1,2-a]pyridine-3-carboxamide] | ≤ 50 nM | –
5 | Cc1ccc(N(C)S(=O)(=O)NC(=O)c2cnc3ccc(N4C[C@@H](F)C[C@@H]4c4cc(F)ccc4O[C@@H]4CCOC4)cn23)nn1 [Example 78, 6-((2R,4S)-4-fluoro-2-(5-fluoro-2-(((R)-tetrahydrofuran-3-yl)oxy)phenyl)pyrrolidin-1-yl)-N—(N-methyl-N-(6-methylpyridazin-3-yl)sulfamoyl)imidazo[1,2-a]pyridine-3-carboxamide] | ≤ 50 nM | –
6 | O=C(NS(=O)(=O)c1ccc(-n2cncn2)cc1)c1cnc2ccc(N3CCC[C@@H]3c3cc(F)ccc3F)cn12 [Example 35, (R)-N-((4-(1H-1,2,4-triazol-1-yl)phenyl)sulfonyl)-6-(2-(2,5-difluorophenyl)pyrrolidin-1-yl)imidazo[1,2-a]pyridine-3-carboxamide] | 50 to 100 nM | –
7 | O=C(NS(=O)(=O)c1ccc(N2CC[C@H](O)C2)cc1)c1cnc2ccc(N3CCC[C@@H]3c3cc(F)ccc3F)cn12 [Example 36, 6-((R)-2-(2,5-difluorophenyl)pyrrolidin-1-yl)-N-((4-((S)-3-hydroxypyrrolidin-1-yl)phenyl)sulfonyl)imidazo[1,2-a]pyridine-3-carboxamide] | 100 to 500 nM | –
8 | CN(CC(C)(C)F)S(=O)(=O)NC(=O)c1cnc2ccc(N3C[C@@H](F)C[C@@H]3c3cc(F)ccc3OC3CCOCC3)cn12 [Example 110, 6-((2R,4S)-4-fluoro-2-(5-fluoro-2-((tetrahydro-2H-pyran-4-yl)oxy)phenyl)pyrrolidin-1-yl)-N—(N-(2-fluoro-2-methylpropyl)-N-methylsulfamoyl)imidazo[1,2-a]pyridine-3-carboxamide] | ≤ 50 nM | –
9 | CCN(C)S(=O)(=O)NC(=O)c1cnc2ccc(N3C[C@@H](F)C[C@@H]3c3cc(F)ccc3OCCF)cn12 [Example 57, N-(N-ethyl-N-methylsulfamoyl)-6-((2R,4S)-4-fluoro-2-(5-fluoro-2-(2-fluoroethoxy)phenyl)pyrrolidin-1-yl)imidazo[1,2-a]pyridine-3-carboxamide] | ≤ 50 nM | –
10 | CN(c1ccccn1)S(=O)(=O)NC(=O)c1cnc2ccc(N3CCC[C@@H]3c3cc(F)ccc3OC3CCOCC3)cn12 [Example 84, (R)-6-(2-(5-fluoro-2-((tetrahydro-2H-pyran-4-yl)oxy)phenyl)pyrrolidin-1-yl)-N—(N-methyl-N-(pyridin-2-yl)sulfamoyl)imidazo[1,2-a]pyridine-3-carboxamide] | ≤ 50 nM | –
11 | CN(c1ccn(C)n1)S(=O)(=O)NC(=O)c1cnc2ccc(N3C[C@@H](F)C[C@@H]3c3cc(F)ccc3OC3CCOCC3)cn12 [Example 96, 6-((2R,4S)-4-fluoro-2-(5-fluoro-2-((tetrahydro-2H-pyran-4-yl)oxy)phenyl)pyrrolidin-1-yl)-N—(N-methyl-N-(1-methyl-1H-pyrazol-3-yl)sulfamoyl)imidazo[1,2-a]pyridine-3-carboxamide] | ≤ 50 nM | –
12 | COCCN(C)S(=O)(=O)NC(=O)c1cnc2ccc(N3C[C@@H](F)C[C@@H]3c3cc(F)ccc3OC3CCOCC3)cn12 [Example 89, 6-((2R,4S)-4-fluoro-2-(5-fluoro-2-((tetrahydro-2H-pyran-4-yl)oxy)phenyl)pyrrolidin-1-yl)-N—(N-(2-methoxyethyl)-N-methylsulfamoyl)imidazo[1,2-a]pyridine-3-carboxamide] | ≤ 50 nM | –
13 | CCN(CCF)S(=O)(=O)NC(=O)c1cnc2ccc(N3C[C@@H](F)C[C@@H]3c3cc(F)ccc3O[C@@H]3CCOC3)cn12 [Example 75, N—(N-ethyl-N-(2-fluoroethyl)sulfamoyl)-6-((2R,4S)-4-fluoro-2-(5-fluoro-2-(((R)-tetrahydrofuran-3-yl)oxy)phenyl)pyrrolidin-1-yl)imidazo[1,2-a]pyridine-3-carboxamide] | ≤ 50 nM | –
14 | O=C(NS(=O)(=O)c1ccc(N2CC[C@H](O)C2)nc1)c1cnc2ccc(N3CCCCC3c3cc(F)ccc3F)cn12 (stereo partly drawn) [Example 51, 6-(2-(2,5-difluorophenyl)piperidin-1-yl)-N-((6-((S)-3-hydroxypyrrolidin-1-yl)pyridin-3-yl)sulfonyl)imidazo[1,2-a]pyridine-3-carboxamide] | – | 1000 to 10000 nM
15 | Cc1nnc(N(C)S(=O)(=O)NC(=O)c2cnc3ccc(N4C[C@@H](F)C[C@@H]4c4cc(F)ccc4O[C@@H]4CCOC4)cn23)s1 [Example 93, 6-((2R,4S)-4-fluoro-2-(5-fluoro-2-(((R)-tetrahydrofuran-3-yl)oxy)phenyl)pyrrolidin-1-yl)-N—(N-methyl-N-(5-methyl-1,3,4-thiadiazol-2-yl)sulfamoyl)imidazo[1,2-a]pyridine-3-carboxamide] | ≤ 50 nM | –

Other lines, results leading:

Row | IC50 [1] | IC50 [2] | SMILES
16 | ≤ 50 nM | – | CN(c1ccn(C)n1)S(=O)(=O)NC(=O)c1cnc2ccc(N3CCC[C@@H]3c3cc(F)ccc3F)cn12 [Example 90, (R)-6-(2-(2,5-difluorophenyl)pyrrolidin-1-yl)-N—(N-methyl-N-(1-methyl-1H-pyrazol-3-yl)sulfamoyl)imidazo[1,2-a]pyridine-3-carboxamide]
17 | ≤ 50 nM | – | CN(c1nccs1)S(=O)(=O)NC(=O)c1cnc2ccc(N3CCC[C@@H]3c3cc(F)ccc3F)cn12 [Example 48, (R)-6-(2-(2,5-difluorophenyl)pyrrolidin-1-yl)-N-(N-methyl-N-(thiazol-2-yl)sulfamoyl)imidazo[1,2-a]pyridine-3-carboxamide]
18 | ≤ 50 nM | – | COc1ccc(F)cc1[C@H]1CCCN1c1ccc2ncc(C(=O)NS(=O)(=O)N(C)CCF)n2c1 [Example 56, (R)-6-(2-(5-fluoro-2-methoxyphenyl)pyrrolidin-1-yl)-N-(N-(2-fluoroethyl)-N-methylsulfamoyl)imidazo[1,2-a]pyridine-3-carboxamide]
19 | – | 1000 to 10000 nM | CCN(C)S(=O)(=O)NC(=O)c1cnc2ccc(N3CCCCC3c3cc(F)ccc3F)cn12 (single isomer, unassigned) [Example 70, 6-(2-(2,5-difluorophenyl)piperidin-1-yl)-N-(N-ethyl-N-methyl-sulfamoyl)imidazo[1,2-a]pyridine-3-carboxamide]
20 | 50 to 100 nM | – | O=C(NS(=O)(=O)N(CC1CC1)c1cccnc1)c1cnc2ccc(N3CCC[C@@H]3c3cc(F)ccc3F)cn12 [Example 44, (R)-N-(N-(cyclopropylmethyl)-N-(pyridin-3-yl)sulfamoyl)-6-(2-(2,5-difluorophenyl)pyrrolidin-1-yl)imidazo[1,2-a]pyridine-3-carboxamide]
21 | ≤ 50 nM | – | CN(CC(F)(F)F)S(=O)(=O)NC(=O)c1cnc2ccc(N3CCC[C@@H]3c3cc(F)ccc3F)cn12 [Example 41, (R)-6-(2-(2,5-difluorophenyl)pyrrolidin-1-yl)-N-(N-methyl-N-(2,2,2-trifluoroethyl)sulfamoyl)imidazo[1,2-a]pyridine-3-carboxamide]
22 | 100 to 500 nM | – | CC(CO)(CO)NC(=O)c1cnc2ccc(N3CCC[C@@H]3c3cc(F)ccc3F)cn12 [Example 24, (R)-6-(2-(2,5-difluorophenyl)pyrrolidin-1-yl)-N-(1,3-dihydroxy-2-methylpropan-2-yl)imidazo[1,2-a]pyridine-3-carboxamide]
23 | 100 to 500 nM | – | C[C@@H](CO)NC(=O)c1cnc2ccc(N3CCC[C@@H]3c3cc(F)ccc3F)cn12 [Example 28, 6-((R)-2-(2,5-difluorophenyl)pyrrolidin-1-yl)-N—((S)-1-hydroxypropan-2-yl)imidazo[1,2-a]pyridine-3-carboxamide]
24 | 50 to 100 nM | – | CCCN(C)S(=O)(=O)NC(=O)c1cnc2ccc(N3CCC[C@@H]3c3cc(F)ccc3OC)cn12 [Example 53]
25 | ≤ 50 nM | – | COCCN(C)S(=O)(=O)NC(=O)c1cnc2ccc(N3CCC[C@@H]3c3cc(F)ccc3O[C@@H]3CCOC3)cn12 [Example 105, 6-((R)-2-(5-fluoro-2-(((R)-tetrahydrofuran-3-yl)oxy)phenyl)pyrrolidin-1-yl)-N—(N-(2-methoxyethyl)-N-methylsulfamoyl)imidazo[1,2-a]pyridine-3-carboxamide]
